Experimental data as given in ChEMBL document CHEMBL5335863, “Design, Synthesis, and Evaluation of 8-(o-Tolyl)quinazoline Derivatives as Small-Molecule PD-1/PD-L1 Antagonists” (ACS Med Chem Lett, 2024).

What follows are compounds tested on Jurkat (assay: Cytotoxicity against human Jurkat cells assessed as reduction in cell viability at 3.3 uM incubated for 48 hrs by CCK-8 assay). Settings: not given.
Assay type: toxicity, cell-based

SMILES	Activity
Cc1c(COc2cc(OCc3cccc(C#N)c3)c(CNC[C@@H](O)CO)cc2Cl)cccc1-c1cccc2c(Oc3cc(OCc4cccc(C#N)c4)c(CNC[C@@H](O)CO)cc3Cl)ncnc12	Non-Toxic

The compounds below were run against T1, Programmed cell death protein 1/Programmed cell death 1 ligand 1 (Homo sapiens, UniProt Q15116+Q9NZQ7) (assay: Inhibition of PD-1/PD-L1 interaction (unknown origin) incubated for 60 min by HTRF assay). Settings: not given.
Assay type: protein-complex assay

T1 sequence (Q15116 whole entry): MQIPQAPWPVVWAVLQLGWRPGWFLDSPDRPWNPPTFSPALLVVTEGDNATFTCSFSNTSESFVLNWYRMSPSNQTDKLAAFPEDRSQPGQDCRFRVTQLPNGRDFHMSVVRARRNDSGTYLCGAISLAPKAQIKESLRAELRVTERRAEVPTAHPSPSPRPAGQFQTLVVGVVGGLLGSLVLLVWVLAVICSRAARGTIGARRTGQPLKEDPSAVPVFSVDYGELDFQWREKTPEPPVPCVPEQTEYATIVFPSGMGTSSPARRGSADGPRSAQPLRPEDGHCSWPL
T1 sequence (Q9NZQ7 whole entry): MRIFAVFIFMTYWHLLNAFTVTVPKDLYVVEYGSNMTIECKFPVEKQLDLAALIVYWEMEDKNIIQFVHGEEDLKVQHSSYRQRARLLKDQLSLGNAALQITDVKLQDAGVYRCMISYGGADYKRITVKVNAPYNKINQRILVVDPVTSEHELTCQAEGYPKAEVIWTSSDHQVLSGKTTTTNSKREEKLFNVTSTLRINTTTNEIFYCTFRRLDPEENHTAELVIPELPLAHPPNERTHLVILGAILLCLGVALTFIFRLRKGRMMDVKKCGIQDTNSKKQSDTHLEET

SMILES	IC50 [nM]
Cc1c(COc2cc(OCc3cccc(C#N)c3)c(CNCCO)cc2Cl)cccc1-c1cccc2c(Oc3cc(OCc4cccc(C#N)c4)c(CNCCO)cc3Cl)ncnc12	37.7
Cc1c(COc2cc(OCc3cccc(C#N)c3)c(CNC[C@H](O)CO)cc2Cl)cccc1-c1cccc2c(Oc3cc(OCc4cccc(C#N)c4)c(CNC[C@H](O)CO)cc3Cl)ncnc12	33.9
Cc1c(COc2cc(OCc3cccc(C#N)c3)c(CNC3CC3)cc2Cl)cccc1-c1cccc2c(Oc3cc(OCc4cccc(C#N)c4)c(CNC4CC4)cc3Cl)ncnc12	390
Cc1c(COc2cc(OCc3cccc(C#N)c3)c(CNC(CO)CO)cc2Cl)cccc1-c1cccc2c(Oc3cc(OCc4cccc(C#N)c4)c(CNC(CO)CO)cc3Cl)ncnc12	47.2
Cc1c(COc2cc(OCc3cccc(C#N)c3)c(CNC[C@@H](O)CO)cc2Cl)cccc1-c1cccc2c(Oc3cc(OCc4cccc(C#N)c4)c(CNC[C@@H](O)CO)cc3Cl)ncnc12	23.8
CC(=O)NCCNCc1cc(Cl)c(OCc2cccc(-c3cccc4c(Oc5cc(OCc6cccc(C#N)c6)c(CNCCNC(C)=O)cc5Cl)ncnc34)c2C)cc1OCc1cccc(C#N)c1	61.4
Cc1c(COc2cc(OCc3cccc(C#N)c3)c(CO)cc2Cl)cccc1-c1cccc2c(Oc3cc(OCc4cccc(C#N)c4)c(CO)cc3Cl)ncnc12	> 1000
Cc1c(COc2cc(OCc3cccc(C#N)c3)c(CN3CC[C@@H](O)C3)cc2Cl)cccc1-c1cccc2c(Oc3cc(OCc4cccc(C#N)c4)c(CN4CC[C@@H](O)C4)cc3Cl)ncnc12	46.2
Cc1c(COc2cc(OCc3cccc(C#N)c3)c(CNC(C)C)cc2Cl)cccc1-c1cccc2c(Oc3cc(OCc4cccc(C#N)c4)c(CNC(C)C)cc3Cl)ncnc12	51.5
Cc1c(COc2cc(OCc3cccc(C#N)c3)c(CN(C)CCO)cc2Cl)cccc1-c1cccc2c(Oc3cc(OCc4cccc(C#N)c4)c(CN(C)CCO)cc3Cl)ncnc12	44.8
Cc1c(COc2cc(OCc3cccc(C#N)c3)c(CNC3CCCC3)cc2Cl)cccc1-c1cccc2c(Oc3cc(OCc4cccc(C#N)c4)c(CNC4CCCC4)cc3Cl)ncnc12	112
COCCNCc1cc(Cl)c(OCc2cccc(-c3cccc4c(Oc5cc(OCc6cccc(C#N)c6)c(CNCCOC)cc5Cl)ncnc34)c2C)cc1OCc1cccc(C#N)c1	101
Cc1c(COc2cc(OCc3cccc(C#N)c3)c(CNC(C)(CO)CO)cc2Cl)cccc1-c1cccc2c(Oc3cc(OCc4cccc(C#N)c4)c(CNC(C)(CO)CO)cc3Cl)ncnc12	30.2
Cc1c(COc2cc(OCc3cccc(C#N)c3)c(CNC3CCCCC3)cc2Cl)cccc1-c1cccc2c(Oc3cc(OCc4cccc(C#N)c4)c(CNC4CCCCC4)cc3Cl)ncnc12	167
Cc1c(COc2cc(OCc3cccc(C#N)c3)c(CN3CC[C@H](O)C3)cc2Cl)cccc1-c1cccc2c(Oc3cc(OCc4cccc(C#N)c4)c(CN4CC[C@H](O)C4)cc3Cl)ncnc12	55.5
CC(CO)(CO)NCc1cc(Cl)c(Oc2ncnc3c(-c4ccc5c(c4)OCCO5)cccc23)cc1OCc1cccc(C#N)c1	40.8
Cc1c(Nc2nccc3cc(CN4CC[C@H](O)C4)cnc23)cccc1-c1cccc(-c2nc3cc(CN4CC[C@H](C(=O)O)C4)cc(C#N)c3o2)c1C	12.1
Cc1c(COc2cc(OCc3cccc(C#N)c3)c(C=O)cc2Cl)cccc1-c1cccc2c(Oc3cc(OCc4cccc(C#N)c4)c(C=O)cc3Cl)ncnc12	> 1000
Cc1c(COc2cc(OCc3cccc(C#N)c3)c(CNC(CO)(CO)CO)cc2Cl)cccc1-c1cccc2c(Oc3cc(OCc4cccc(C#N)c4)c(CNC(CO)(CO)CO)cc3Cl)ncnc12	25.3
Cc1c(COc2cc(OCc3cccc(C#N)c3)c(CNC3CCC3)cc2Cl)cccc1-c1cccc2c(Oc3cc(OCc4cccc(C#N)c4)c(CNC4CCC4)cc3Cl)ncnc12	105
Cc1c(COc2cc(OCc3cccc(C#N)c3)c(CN3CCC(O)CC3)cc2Cl)cccc1-c1cccc2c(Oc3cc(OCc4cccc(C#N)c4)c(CN4CCC(O)CC4)cc3Cl)ncnc12	75.8
Cc1c(COc2cc(OCc3cccc(C#N)c3)c(CNC3CCOCC3)cc2Cl)cccc1-c1cccc2c(Oc3cc(OCc4cccc(C#N)c4)c(CNC4CCOCC4)cc3Cl)ncnc12	59.7
CCNCc1cc(Cl)c(OCc2cccc(-c3cccc4c(Oc5cc(OCc6cccc(C#N)c6)c(CNCC)cc5Cl)ncnc34)c2C)cc1OCc1cccc(C#N)c1	48.5

Each compound was assayed against T1, Programmed cell death protein 1/Programmed cell death 1 ligand 1 (assay: Inhibition of PD-1/PD-L1 interaction in co-culture of Jurkat-NFAT-PD-1 cells expressing PD-1 and reporter gene and Hep3B-OS8-hPD-L1 cells expressing OS-8 and human PD-L1 assessed as increase in luminescence intensity incubated for 6 hrs by luminometry). Settings: dose 0.4-1.11 µM.

SMILES	inhibition
Cc1c(COc2cc(OCc3cccc(C#N)c3)c(CNC[C@@H](O)CO)cc2Cl)cccc1-c1cccc2c(Oc3cc(OCc4cccc(C#N)c4)c(CNC[C@@H](O)CO)cc3Cl)ncnc12	Dose-Dependent Effect
